Source: PMC5654082 (Malaria Journal, 2017)
Structures can show the parent of a compound that is named as a salt.

Key:
[1] = target: T1, human OCT1 (Homo sapiens, UniProt O15245); assay: OCT1-mediated cellular import in transduced HEK293 cells (LC-MS/MS); type: cell-based
T1 construct: host or cells: HEK293, baculovirus transduction (CMV promoter), transient
T1 sequence (O15245 1-554): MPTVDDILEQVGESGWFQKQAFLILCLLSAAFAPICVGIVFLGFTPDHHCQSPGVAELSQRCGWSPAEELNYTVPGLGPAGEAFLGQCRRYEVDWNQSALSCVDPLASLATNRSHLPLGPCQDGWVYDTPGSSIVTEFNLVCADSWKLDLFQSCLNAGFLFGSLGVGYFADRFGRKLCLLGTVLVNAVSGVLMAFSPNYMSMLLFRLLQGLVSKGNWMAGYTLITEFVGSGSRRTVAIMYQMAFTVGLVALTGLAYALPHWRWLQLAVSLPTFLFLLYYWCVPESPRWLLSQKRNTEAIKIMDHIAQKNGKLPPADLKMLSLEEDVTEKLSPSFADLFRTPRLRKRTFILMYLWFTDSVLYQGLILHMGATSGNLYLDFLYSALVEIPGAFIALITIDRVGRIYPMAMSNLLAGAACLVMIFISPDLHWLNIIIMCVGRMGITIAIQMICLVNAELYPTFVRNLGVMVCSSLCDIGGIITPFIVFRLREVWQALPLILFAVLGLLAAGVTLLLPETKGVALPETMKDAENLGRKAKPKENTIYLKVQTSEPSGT
Experimental: (§1) HEK293 cells were modified to transiently express (a combination of) human OCT1, OCT2, MATE1, MATE2-K, or eYFP. Briefly, cDNA of the respective genes was cloned downstream of a CMV promoter into a baculovirus, of which passage three was used to transduce HEK293 cells. These cells were seeded in poly-D-lysine coated 24- or 96-wells plates and grown in a 37 °C incubator at 5% CO2. Growth was initiated at ~ 25% confluency using 375 or 125 μL cell and complete medium (DMEM + GlutaMAX™-I supplemented with 10% fetal bovine serum) suspension per well, respectively. After 24 h, cells were transduced with 30 µL virus (10 µL virus + 20 µL complete medium in case of 96-wells plates) or 2 × 15 µL virus for cells that required simultaneous expression of two transporters. Finally, 195 µL sodium butyrate (45 µL for 96-wells plates) was added to a final concentration of 2 mM to enhance protein expression.
HEK293 cells were seeded in 24-wells poly-D-lysine coated plates and transduced the subsequent day with OCT1 or OCT2 as described above. Three days following transduction, OCT1- or OCT2-mediated uptake of ten anti-malarials (AMO, ART, ATO, CQ, DHA, LUM, MQ, PQ, PG, and QN) was performed. NMQ served as a positive substrate for both OCT1 and OCT2 import. In short, cells were washed with 400 µL 37 °C HBSS-HEPES buffer followed by adding 150 µL HBSS buffer with 10 µM anti-malarial or NMQ to each well. After incubation for 15 min at 37 °C, import was stopped by washing with 400 µL ice-cold HBSS-HEPES buffer supplemented with 0.5% BSA. Following a second wash with 400 µL ice-cold HBSS-HEPES buffer, cells were lysed with 200 µL 50% (v/v) MeOH and 0.1% (v/v) formic acid (HCOOH) in water and samples were sent for quantification by mass spectrometry analysis (see “LC–MS/MS quantification of anti-malarials” section). […]
(§2) The affinity (KM) and maximum transport rate (Vmax) for OCT1 and OCT2 of PG were determined by analysing concentration-dependent uptake data from three independent experiments.
Import and export of PG and cycloguanil (CG) was assessed by single and double transduced HEK293 cells. […] Following the same procedure as for the cellular import assay described above, the import of 100 µM PG and CG was measured after 5 min incubation and data was plotted as mean pmol/mg/min ± SEM. […] Significant reduction in uptake (i.e. export by MATEs) was determined using ln transformation and a one-way repeated measures ANOVA with Dunnet’s post test.
Anti-malarial concentration in the cell lysates was quantified using an LC–MS/MS system consisting of a UPLC, a binary solvent manager, a vacuum degasser and an autosampler, coupled to a Xevo TQ-S micro triple quadrupole mass spectrometer. […]

[2] = target: T2, human OCT2 (Homo sapiens, UniProt O15244); assay: OCT2-mediated cellular import in transduced HEK293 cells (LC-MS/MS); type: cell-based
T2 construct: host or cells: HEK293, baculovirus transduction (CMV promoter), transient
T2 sequence (O15244 1-555): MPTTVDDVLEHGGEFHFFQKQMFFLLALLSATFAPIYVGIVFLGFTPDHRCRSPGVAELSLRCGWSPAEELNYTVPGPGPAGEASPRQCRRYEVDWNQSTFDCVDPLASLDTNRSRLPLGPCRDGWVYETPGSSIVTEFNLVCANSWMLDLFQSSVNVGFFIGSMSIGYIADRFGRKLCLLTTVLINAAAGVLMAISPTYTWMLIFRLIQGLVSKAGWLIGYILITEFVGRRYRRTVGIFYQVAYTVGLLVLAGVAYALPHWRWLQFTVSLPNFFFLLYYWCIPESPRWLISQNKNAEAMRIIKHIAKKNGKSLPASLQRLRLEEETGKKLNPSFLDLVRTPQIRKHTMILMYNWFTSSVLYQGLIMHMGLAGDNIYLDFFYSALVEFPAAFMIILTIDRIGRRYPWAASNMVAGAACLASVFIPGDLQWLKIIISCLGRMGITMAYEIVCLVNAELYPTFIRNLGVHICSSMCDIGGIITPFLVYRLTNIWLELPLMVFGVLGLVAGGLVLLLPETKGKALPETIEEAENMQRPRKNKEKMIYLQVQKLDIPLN
Experimental: as §1
HEK293 cells were seeded in 24-wells poly-D-lysine coated plates and transduced the subsequent day with OCT1 or OCT2 as described above. Three days following transduction, OCT1- or OCT2-mediated uptake of ten anti-malarials (AMO, ART, ATO, CQ, DHA, LUM, MQ, PQ, PG, and QN) was performed. […] Following a second wash with 400 µL ice-cold HBSS-HEPES buffer, cells were lysed with 200 µL 50% (v/v) MeOH and 0.1% (v/v) formic acid (HCOOH) in water and samples were sent for quantification by mass spectrometry analysis (see “LC–MS/MS quantification of anti-malarials” section). […]
as §2
Import and export of PG and cycloguanil (CG) was assessed by single and double transduced HEK293 cells. […] Following the same procedure as for the cellular import assay described above, the import of 100 µM PG and CG was measured after 5 min incubation and data was plotted as mean pmol/mg/min ± SEM. […] Significant reduction in uptake (i.e. export by MATEs) was determined using ln transformation and a one-way repeated measures ANOVA with Dunnet’s post test. […]

[3] = Maximum plasma concentration from in vivo pharmacokinetic studies after therapeutic dosing; conditions: human, the literature Cmax (ng/mL) of Table 2 expressed in µM
From the text: As Cmax the (geometric) mean or median maximum plasma concentrations obtained from previous in vivo pharmacokinetic studies after therapeutic dosing was used.

[4] = set-up: method as in earlier work; conditions: unchanged PG; cited from earlier work

Compound | Uptake by OCT1 ([1]; 100 µM, 5 min) | Uptake by OCT2 ([2]; 100 µM, 5 min) | Cmax [3] | Uptake by OCT1, percentage of mock-transduced control ([1]; 10 µM, 15 min, 37 °C) | Uptake, percentage of eYFP control cells ([1]; cells co-transduced with eYFP and OCT1, 1 µM, 1 min, pH 7.4) | Uptake by OCT2, percentage of mock-transduced control ([2]; 10 µM, 15 min, 37 °C) | Excretion into the urine [4]
CC1(C)N=C(N)N=C(N)N1c1ccc(Cl)cc1 [Cycloguanil] | 139 ± 9 pmol/mg/min | 118 ± 18 pmol/mg/min |  |  |  |  | 
[H]/N=C(\N/C(=N/[H])Nc1ccc(Cl)cc1)NC(C)C [Proguanil, proguanil hydrochloride] |  |  | 1.2 µM | 301 ± 25% | 850 ± 60% | 207 ± 17% | < 40%
